Patent publication US9718773B2, “Substituted 5 membered heterocyclic compounds and preparation thereof” (Council of Scientific and Industrial Research, priority 2014, dated 2017)

System: Mycobacterium smegmatis MC^2155 strain
Assay: Anti-mycobacterial growth inhibition assay (turbidometry, 96 well plate)
Type: cell-based
Details: Mycolicibacterium smegmatis, ATCC14468|MC^2155, 32 h
Description: Anti-Mycobacterial Activity Assay:
Anti-mycobacterial activity of the synthesized compounds was performed with Mycobacterium smegmatis MC^2155 strain by performing a growth inhibition assay by agar dilution followed turbidometry method. The assay was semi-throughput and conducted in a 96 well plate (sterile). Isolated single colonies of M. smegmatis MC^2 155 (ATCC 14468) grown on 7H10 agar plate were grown overnight in Middlebrook 7H9 medium (0.47% Middlebrook 7H9 broth base, 10% ADS, 0.2% glycerol, and 0.1% Tween-80) to mid exponential phase at 37° C. When the OD of this culture reached approximately 0.8, a secondary culture was inoculated in 5 ml Middlebrook 7H9 medium. The secondary culture was incubated overnight and allowed to grow at 37° C. to early log phase (OD600≈0.3). For the anti-mycobacterial assay, 98 μl of 1:1000-folds dilution of secondary culture was dispensed into 96-well microtiter plate per well along with 2 μl of test compound in triplicate. 240 μl of sterile water were added to each well of the peripheral rows of 96-well plate to minimize media evaporation during assay incubation. The final concentration of the test compound in each well was 30 μM. Bacterial growth was assessed after 32 hours of incubation by measuring turbidity at 600 nm OD600 values using TECAN Infinite 200 PRO™ (Tecan Instruments, Switzerland). Depending upon the percentage of growth, the percentage of inhibition was calculated at the standard concentration of 30 μM. Isoniazid and Rifampicin were included in every assay plate as positive controls of growth inhibition using stock solutions of INH (10 mg/mL, HiMedia) and Rifampicin (10 mg/mL, HiMedia) to achieve the final concentration of 16 μg/mL for INH and 2 μg/mL for Rifampicin. Additional controls, DMSO (solvent without compound) and medium without inoculums, were included in all the assay plates avoiding intra assay variability. The results were analyzed as the percentage of growth inhibition.

SMILES	inhibition at 30 µM [%]
CCOC(=O)C[C@@H]1[C@@H](C(NC(=O)OC(C)(C)C)c2ccccc2)CN(S(=O)(=O)c2ccc(C)cc2)[C@@H]1C(=O)OCC (stereo partly shown) [IA]	13.5
CCOC(=O)C[C@@H]1[C@@H](C(NC(=O)OC(C)(C)C)c2ccc(C(F)(F)F)cc2)CN(S(=O)(=O)c2ccc(C)cc2)[C@@H]1C(=O)OCC (stereo partly shown) [IC]	0.493
CCOC(=O)C[C@@H]1[C@@H](C(NC(=O)OC(C)(C)C)c2ccc3ccccc3c2)CN(S(=O)(=O)c2ccc(C)cc2)[C@@H]1C(=O)OCC (stereo partly shown) [IE]	20.7
CCOC(=O)C[C@@H]1[C@@H](C(NC(=O)OC(C)(C)C)c2ccc(Br)cc2)CN(S(=O)(=O)c2ccc(C)cc2)[C@@H]1C(=O)OCC (stereo partly shown) [IF]	10.8
CCOC(=O)C[C@@H]1[C@@H]([C@@H](NC(=O)OC(C)(C)C)c2ccc(F)cc2)CN(S(=O)(=O)c2ccc(C)cc2)[C@@H]1C(=O)OCC [IG, ethyl (2S,3R,4R)-4-((R)-((tert-butoxycarbonyl)amino)(4-fluorophenyl)methyl)-3-(2ethoxy-2-oxoethyl)-1-tosylpyrrolidine-2-carboxylate]	18.2

Same assay, conditions: Mycolicibacterium smegmatis, ATCC14468|MC^2155; test compound 30 μM; bacterial growth after 32 hours by OD600; M. smegmatis MC^2 155 (ATCC 14468); read-out: % Inhibition

SMILES	inhibition at 30 µM [%]
CCOC(=O)C[C@H]1CN(C(=O)OC(C)C)N(C(=O)OC(C)C)[C@@H]1Cc1ccc(OC)cc1 [2e, Diisopropyl (3R,4S)-4-(2-ethoxy-2-oxoethyl)-3-(4-methoxybenzyl)pyrazolidine-1,2-dicarboxylate]	14
CCOC(=O)C[C@H]1CN(C(=O)OC(C)C)N(C(=O)OC(C)C)[C@@H]1Cc1ccc(SC)cc1 [2g, Diisopropyl (3R,4S)-4-(2-ethoxy-2-oxoethyl)-3-(4-(methylthio)benzyl)pyrazolidine-1,2-dicarboxylate]	24.9
CCOC(=O)C[C@H]1CN(C(=O)OC(C)C)N(C(=O)OC(C)C)[C@@H]1Cc1cc2c(cc1[N+](=O)[O-])OCO2 [2i, Diisopropyl(3R,4S)-4-(2-ethoxy-2-oxoethyl)-3-((6-nitrobenzo[d][1,3]dioxol-5-yl)methyl)pyrazolidine-1,2-dicarboxylate]	29.3

System: not given
Assay: not given
Details: not given

SMILES	melting point [°C]
CCOC(=O)C[C@@H]1[C@@H](C(NC(=O)OC(C)(C)C)c2ccccc2)CN(S(=O)(=O)c2ccc(C)cc2)[C@@H]1C(=O)OCC (stereo partly shown)	150 to 151
CCOC(=O)C[C@@H]1[C@@H](C(NC(=O)OC(C)(C)C)c2ccc(Cl)cc2)CN(S(=O)(=O)c2ccc(C)cc2)[C@@H]1C(=O)OCC (stereo partly shown)	155 to 156
CCOC(=O)C[C@@H]1[C@@H](C(NC(=O)OC(C)(C)C)c2ccc(C(F)(F)F)cc2)CN(S(=O)(=O)c2ccc(C)cc2)[C@@H]1C(=O)OCC (stereo partly shown)	169 to 170
CCOC(=O)C[C@@H]1[C@@H](C(NC(=O)OC(C)(C)C)c2ccc(C)cc2)CN(S(=O)(=O)c2ccc(C)cc2)[C@@H]1C(=O)OCC (stereo partly shown)	177 to 178
CCOC(=O)C[C@@H]1[C@@H](C(NC(=O)OC(C)(C)C)c2ccc3ccccc3c2)CN(S(=O)(=O)c2ccc(C)cc2)[C@@H]1C(=O)OCC (stereo partly shown)	160 to 161
CCOC(=O)C[C@@H]1[C@@H](C(NC(=O)OC(C)(C)C)c2ccc(Br)cc2)CN(S(=O)(=O)c2ccc(C)cc2)[C@@H]1C(=O)OCC (stereo partly shown)	161 to 163
CCOC(=O)C[C@@H]1[C@@H](C(NC(=O)OC(C)(C)C)c2ccc(F)cc2)CN(S(=O)(=O)c2ccc(C)cc2)[C@@H]1C(=O)OCC (stereo partly shown)	148 to 150
Cc1ccc(S(=O)(=O)N2C[C@H]3[C@@H](C2)OC(=O)N[C@H]3c2ccc(F)cc2)cc1	207 to 211
Cc1ccc(S(=O)(=O)N2C[C@H]([C@@H](NC(=O)OC(C)(C)C)c3ccco3)[C@H](O)C2)cc1	136 to 139
Cc1ccc(S(=O)(=O)N2C[C@H]([C@@H](NC(=O)OC(C)(C)C)c3ccccc3)[C@H](O)C2)cc1 [Ia, tert-butyl ((R)-((3R,4S)-4-hydroxy-1-tosylpyrrolidin-3-yl)(phenyl)methyl)carbamate]	197 to 200
Cc1ccc(S(=O)(=O)N2C[C@H]([C@@H](NC(=O)OC(C)(C)C)c3ccc(Cl)cc3)[C@H](O)C2)cc1 [Ib, tert-butyl ((R)-(4-chlorophenyl)((3R,4S)-4-hydroxy-1-tosylpyrrolidin-3-yl)methyl)carbamate]	203 to 205
Cc1ccc(S(=O)(=O)N2C[C@H]([C@@H](NC(=O)OC(C)(C)C)c3ccc(C(F)(F)F)cc3)[C@H](O)C2)cc1 [Ic, tert-butyl ((R)-((3R,4S)-4-hydroxy-1-tosylpyrrolidin-3-yl)(4-(trifluoromethyl)phenyl)methyl)carbamate]	202 to 204
Cc1ccc([C@H](NC(=O)OC(C)(C)C)[C@H]2CN(S(=O)(=O)c3ccc(C)cc3)C[C@H]2O)cc1 [Id, tert-butyl ((R)-((3R,4S)-4-hydroxy-1-tosylpyrrolidin-3-yl)(p-tolyl)methyl)carbamate]	187 to 190
Cc1ccc(S(=O)(=O)N2C[C@H]3[C@@H](C2)OC(=O)N[C@H]3c2ccc3ccccc3c2)cc1 [Ie, (4R,4aR,7aS)-4-(naphthalen-2-yl)-6-tosylhexahydropyrrolo[3,4-e][1,3]oxazin-2(3H)-one]	153 to 156
Cc1ccc(S(=O)(=O)N2C[C@H]3[C@@H](C2)OC(=O)N[C@H]3c2ccc(Br)cc2)cc1 [If, (4R, 4aR, 7aS)-4-(4-Bromophenyl)-6-tosylhexahydropyrrolo [3,4-e][1,3]oxazin-2(3H)-one]	210 to 213
CSc1ccc([C@H](NC(=O)OC(C)(C)C)[C@H]2CN(S(=O)(=O)c3ccc(C)cc3)C[C@H]2O)cc1 [Ii, tert-Butyl ((R)-((3R, 4S)-4-hydroxy-1-tosylpyrrolidin-3-yl)(4-(methylthio)phenyl)methyl)carbamate]	209 to 211
Cc1ccc(S(=O)(=O)N2C[C@H]([C@@H](NC(=O)OC(C)(C)C)c3cccs3)[C@H](O)C2)cc1 [Ij, tert-Butyl ((R)-((3R, 4S)-4-hydroxy-1-tosylpyrrolidin-3-yl)(thiophen-2-yl)methyl) carbamate]	186 to 189
